Laboratory results reported in patent publication US20060089375A1, “Pyrazolo[3,4-b] pyridine compounds, and their use as phosphodiesterase inhibitors” (priority 2002, published 2006).

Tested on: pica feeding response
Assay: In Vivo Assay 2: Rat Pica Model of Emesis
Conditions: oral, rats, dosed orally, upper end given as greater than or equal to about 40 mg/kg
From the text: However, a side effect of some PDE4 inhibitors in many species is emesis. Because many rat models of inflammation are well characterized, they have been used in procedures (see e.g. In Vivo Assay 1 above) to show beneficial anti-inflammatory effects of PDE 4 inhibitors. However rats have no emetic response (they have no vomit reflex), so that the relationship between beneficial anti-inflammatory effects of PDE 4 inhibitors and emesis is difficult to study directly in rats.
Pica feeding is a behavioural response to illness in rats wherein rats eat non-nutritive substances such as earth or in particular clay (e.g. kaolin) which may help to absorb toxins. Pica feeding can be induced by motion and chemicals (especially chemicals which are emetic in humans), and can be inhibited pharmacologically with drugs that inhibit emesis in humans. The Rat Pica Model, In Vivo Assay 2, can determine the level of pica response of rats to PDE 4 inhibition at pharmacologically relevant doses in parallel to in vivo anti-inflammatory Assays in (a separate set of) rats (e.g. In Vivo Assay 1 above). […] The Rat TI can for example be calculated as the ratio of a) the potentially-emetic Pica Response ED50 dose from Assay 2 to b) the rat anti-inflammatory ED50 dose (e.g. measured by rat neutrophilia-inhibition in eg In Vivo Assay 1), with larger TI ratios possibly indicating lower emesis at many anti-inflammatory doses. […]
At the end of 72 hours the rats are placed in clean cages and the food cups weighed. […] The food and clay cups and cage debris are weighed the following day and the total clay and food consumed that night by each individual animal is calculated.
A dose response is calculated by first converting the data into quantal response, where animals are either positive or negative for the pica response. A rat is “pica positive” if it consumes greater than or equal to 0.3 grams of clay […] using logistic regression performed by the Statistica software statistical package. A Pica Response ED50 value in mg per kg of body weight can then be calculated.

Q: For `CCn1ncc2c(NC3CCOCC3)c(C(=O)Nc3ccc(F)cc3)cnc21` [Example 22, 1-Ethyl-N-(4-fluorophenyl)-4-(tetrahydro-2H-pyran-4-ylamino)-1H-pryazolo[3,4-b]pyridine-5-carboxamide], which ED50 is on record?
A: 4.8 to 40 mg/kg

Q: For `CCNC(=O)c1cnc2c(cnn2CC)c1NC1CCOCC1` [Example 83, 1-Ethyl-N-ethyl-4-(tetrahydro-2H-pyran-4-ylamino)-1H-pyrazolo[3,4-b]pyridine-5-carboxamide], which ED50 is on record?
A: 4.8 to 40 mg/kg

Q: How did the ED50 turn out when `CCn1ncc2c(NC3CCOCC3)c(C(=O)NCc3ccc(C(F)(F)F)cc3)cnc21` [Example 155, 1-Ethyl-4-(tetrahydro-2H-pyran-4-ylamino)-N-[4-(trifluoromethyl)benzyl]-1H-pyrazolo[3,4-b]pyridine-5-carboxamide] was run?
A: 4.8 to 40 mg/kg
